The source made the active and inactive calls. No cut-off for these calls is given here.
Key:
Type in all cases: functional, organism-based
[1] = test system: Rattus norvegicus; assay: Carcinogenic activity on ear duct after subcutaneous administration
[2] = test system: Rattus norvegicus; assay: Compound was tested for carcinogenic activity on all sites after subcutaneous administration of the compound; + denotes carcinogenic activity.
[3] = test system: Rattus norvegicus; assay: Carcinogenic activity on all sites after subcutaneous administration
[4] = test system: Rattus norvegicus; assay: Carcinogenic activity on other sites after subcutaneous administration
[5] = test system: Rattus norvegicus; assay: Compound was tested for carcinogenic activity on liver after subcutaneous administration of the compound; + denotes carcinogenic activity
[6] = test system: Rattus norvegicus; assay: Compound was tested for carcinogenic activity on all sites after subcutaneous administration of the compound; + denotes carcinogenic activity
[7] = test system: Rattus norvegicus; assay: Compound was tested for carcinogenic activity on other sites after subcutaneous administration of the compound; + denotes carcinogenic activity
[8] = test system: Rattus norvegicus; assay: Carcinogenic activity on liver after oral administration
[9] = test system: Rattus norvegicus; assay: Carcinogenic activity on all sites after oral administration
[10] = test system: Rattus norvegicus; assay: Carcinogenic activity on other sites after oral administration
[11] = test system: Rattus norvegicus; assay: Compound was tested for carcinogenic activity on ear duct after oral administration of the compound; na denotes not available.
[12] = test system: Rattus norvegicus; assay: Compound was tested for carcinogenic activity on liver after oral administration of the compound; na denotes data not available.
[13] = test system: Rattus norvegicus; assay: Compound was tested for carcinogenic activity on other sites after various routes administration of the compound; + denotes carcinogenic activity.
[14] = test system: Rattus norvegicus; assay: Compound was tested for carcinogenic activity on breast after various routes administration of the compound; + denotes carcinogenic activity.
[15] = test system: Rattus norvegicus; assay: Compound was tested for carcinogenic activity on ear duct after various routes administration of the compound; + denotes carcinogenic activity.
[16] = test system: Rattus norvegicus; assay: Compound was tested for carcinogenic activity on liver after various routes administration of the compound; + denotes carcinogenic activity.
[17] = test system: Rattus norvegicus; assay: Compound was tested for carcinogenic activity on mixed data after various routes administration of the compound; + denotes carcinogenic activity.
[18] = test system: Rattus norvegicus; assay: Compound was tested for carcinogenic various routes subcutaneous administration of the compound; + denotes carcinogenic activity.
[19] = test system: Rattus norvegicus; assay: Compound was tested for carcinogenic activity on all sites after various routes administration of the compound; + denotes carcinogenic activity.
[20] = test system: Rattus norvegicus; assay: Compound was tested for carcinogenic activity on mixed data after various routes administration of the compound; + denotes four or five active sites
[21] = test system: Rattus norvegicus; assay: Compound was tested for carcinogenic activity on all sites after topical administration of the compound; + denotes carcinogenic activity.
[22] = test system: Rattus norvegicus; assay: Compound was tested for carcinogenic activity on breast after topical administration of the compound; + denotes carcinogenic activity.
[23] = test system: Rattus norvegicus; assay: Compound was tested for carcinogenic activity on other sites after topical administration of the compound; + denotes carcinogenic activity.
[24] = test system: Rattus norvegicus; assay: Compound was tested for carcinogenic activity on mixed data after various routes administration of the compound; + denotes carcinogenic activity
[25] = test system: Rattus norvegicus; assay: Compound was tested for carcinogenic activity on ear duct after oral administration of the compound; + denotes carcinogenic activity.
[26] = test system: Rattus norvegicus; assay: Carcinogenic activity on mixed data after oral administration
[27] = test system: Rattus norvegicus; assay: Carcinogenic activity on breast after oral administration of the compound

For `CCN(CC)c1ccc(/C=C/c2ccccc2)cc1`, the Activity [1] was “Carcinogenic activity” and the Activity [2] was “Carcinogenic activity”.

With `Nc1ccc(-c2ccc(F)cc2)cc1` the Activity [3] was “Carcinogenic activity”, the Activity [4] was “Carcinogenic activity” and the Activity [5] was “Carcinogenic activity”.

`Cc1cccc(-c2ccc(N)cc2C)c1` was tested, and the Activity [6] was “Carcinogenic activity” and the Activity [7] was “Carcinogenic activity”.

With `COc1c(N)ccc2c1Cc1ccccc1-2` the Activity [8] was “Carcinogenic activity”, the Activity [9] was “Carcinogenic activity” and the Activity [10] was “Carcinogenic activity”. The Activity [11] was “inactive”.

For `Nc1ccc(Cc2ccc(N)cc2)cc1`, the Activity [12] was “inactive”.

With `Nc1ccc2c(c1)Cc1ccccc1-2` the Activity [13] was “Carcinogenic activity”, the Activity [14] was “Carcinogenic activity” and the Activity [15] was “Carcinogenic activity”. For the same molecule, the Activity [16] was “Carcinogenic activity”, the Activity [17] was “Carcinogenic activity” and the Activity [18] was “Carcinogenic activity”.

With `CC(=O)Nc1ccc2c(c1)Cc1ccccc1-2` the Activity [13] was “Carcinogenic activity”, the Activity [19] was “Carcinogenic activity” and the Activity [14] was “Carcinogenic activity”. For the same molecule, the Activity [15] was “Carcinogenic activity”, the Activity [16] was “Carcinogenic activity” and the Activity [20] was “Carcinogenic activity”.

In the case of `Nc1ccc2cc3ccccc3cc2c1`, the Activity [21] is reported as “Carcinogenic activity”, the Activity [22] is reported as “Carcinogenic activity” and the Activity [23] is reported as “Carcinogenic activity”.

`CC(=O)N(O)c1ccc2c(c1)Cc1ccccc1-2` was tested, and the Activity [13] was “Carcinogenic activity”, the Activity [19] was “Carcinogenic activity” and the Activity [14] was “Carcinogenic activity”. For the same molecule, the Activity [15] was “Carcinogenic activity”, the Activity [24] was “Carcinogenic activity” and the Activity [16] was “Carcinogenic activity”.

`CN(C)c1ccc(-c2ccccc2)cc1` was tested, and the Activity [25] was “Carcinogenic activity”, the Activity [9] was “Carcinogenic activity” and the Activity [26] was “Carcinogenic activity”. The Activity [27] was “Carcinogenic activity” and the Activity [10] was “Carcinogenic activity”.

Source: ChEMBL document CHEMBL1121791, “Computer-assisted structure-activity studies of chemical carcinogens. Aromatic amines” (J Med Chem, 1981)
